From patent US8163526B2, “Ethanol production” (The University of Durham, priority 2006, dated 2012)

Assays:
Z. mobilis = assay: overproduction of proteins in Z. mobilis in response to autoinducer (identified by mass spectrometry); format: cell-based, Zymomonas mobilis; settings: AI-2 produced in vitro with purified enzymes; 2 cytoplasmic and 3 secreted proteins
Text: […] Nature 437, […]) to avoid the toxic effects of bacteriocin production, it stimulated Z. mobilis to overproduce at least 5 proteins, 2 which were retained in the cytoplasm and 3 that were secreted. These proteins were not produced when Z. mobilis was co-cultured with the luxS-deletion strain KX1128, which lacks the LuxS enzyme that is responsible for the synthesis of 4,5-dihydroxy-2,3-pentanedione (DPD) from S-ribosylhomocysteine, which spontaneously cyclizes to form the autoinducer molecule Autoinducer-2 (AI-2).
The proteins overproduced in response to AI-2 were identified by mass spectrometry sequencing of tryptic-fragments. The first of the secreted proteins, ZMO1147, was identified as a homologue of the E. coli periplasmic chaperone Skp/HIpA (Walton, T A and Sousa M C (2004) Crystal structure of Skp, a prefoldin-like chaperone that protects soluble and membrane proteins from aggregation. Mol Cell. 15, 367-74). […] In E.coli the yaeT and hlpA genes are clustered. In Z. mobilis, ZMO1147 is clearly transcriptionally linked to ZMO1148, a homologue of yaeT, being directly downstream of ZMO1148, so that they share the same promoter. Consequently, both ZMO1147 and ZMO1148 must be induced by AI-2. […] Clearly, ZMO1147 must have a role above and beyond acting as a periplasmic chaperone. […]

Z. mobilis cells = assay: chromate assay for ethanol production by untreated and AI-2-treated Z. mobilis cells; format: cell-based, Zymomonas mobilis
Text: The two overproduced cytosolic proteins were identified as enolase, ZMO1608, and pyruvate decarboxylase, ZMO1360 as illustrated in FIG. 2. These are sequential enzymes in the E-D pathway that leads to ethanol production. […] A chromate assay (e.g. 3C2H5OH+4Cr03−>2Cr2O3+3H2O) was used to asses ethanol production, monitoring colour change (e.g. at 600 nm) to determine the ethanol produced.

Autoinducer-2 [AI-2]
protein overproduction in Z. mobilis (in words) (Z. mobilis): over production of the same five proteins | medium ethanol concentration (Z. mobilis cells; AI-2-treated Z. mobilis, untreated 9%, FIG. 3): 14.2% | ethanol production (in words) (Z. mobilis cells; AI-2-treated vs untreated Z. mobilis cells): significant increase in ethanol production | increase in ethanol production (Z. mobilis cells; AI-2-treated vs untreated Z. mobilis, average of two experiments, chromate assay, colour change at 600 nm): 54%
